Measured values: PubChem BioAssay (NCI)
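Grown in 96-well plates, cells were treated for 48 hours with each compound at five concentrations. Insufficient inhibition: endpoint recorded as highest concentration tested. At the GI50, growth is halved. The concentration for full growth arrest is given as TGI.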

Key:
Experiment in all cases: DTP human tumour cell line panel, 48 h
786-0 renal = test system: 786-0 renal
A498 renal = test system: A498 renal
A549 NSCLC = test system: A549 NSCLC
ACHN renal = test system: ACHN renal
BT-549 breast = test system: BT-549 breast
CAKI-1 renal = test system: CAKI-1 renal
CCRF-CEM leukemia = test system: CCRF-CEM leukemia
COLO 205 colon = test system: COLO 205 colon
DU-145 prostate = test system: DU-145 prostate
HCC-2998 colon = test system: HCC-2998 colon
HCT-116 colon = test system: HCT-116 colon
HL-60(TB) leukemia = test system: HL-60(TB) leukemia
HOP-62 NSCLC = test system: HOP-62 NSCLC
HOP-92 NSCLC = test system: HOP-92 NSCLC
HS 578T breast = test system: HS 578T breast
HT29 colon = test system: HT29 colon
IGROV1 ovarian = test system: IGROV1 ovarian
K-562 leukemia = test system: K-562 leukemia
KM12 colon = test system: KM12 colon
M14 melanoma = test system: M14 melanoma
MALME-3M melanoma = test system: MALME-3M melanoma
MCF7 breast = test system: MCF7 breast
MDA-MB-231 breast = test system: MDA-MB-231 breast
MDA-MB-435 = test system: MDA-MB-435
MOLT-4 leukemia = test system: MOLT-4 leukemia
NCI-H226 lung = test system: NCI-H226 lung
NCI-H23 lung = test system: NCI-H23 lung
NCI-H460 lung = test system: NCI-H460 lung
NCI/ADR-RES ovarian = test system: NCI/ADR-RES ovarian
OVCAR-3 ovarian = test system: OVCAR-3 ovarian
OVCAR-4 ovarian = test system: OVCAR-4 ovarian
OVCAR-5 ovarian = test system: OVCAR-5 ovarian
OVCAR-8 ovarian = test system: OVCAR-8 ovarian
PC-3 prostate = test system: PC-3 prostate
RPMI-8226 leukemia = test system: RPMI-8226 leukemia
RXF 393 renal = test system: RXF 393 renal
SF-268 CNS = test system: SF-268 CNS
SF-295 CNS = test system: SF-295 CNS
SF-539 CNS = test system: SF-539 CNS
SK-MEL-2 melanoma = test system: SK-MEL-2 melanoma
SK-MEL-28 melanoma = test system: SK-MEL-28 melanoma
SK-MEL-5 melanoma = test system: SK-MEL-5 melanoma
SK-OV-3 ovarian = test system: SK-OV-3 ovarian
SN12C renal = test system: SN12C renal
SNB-19 CNS = test system: SNB-19 CNS
SNB-75 CNS = test system: SNB-75 CNS
SR leukemia = test system: SR leukemia
SW-620 colon = test system: SW-620 colon
T-47D breast = test system: T-47D breast
TK-10 renal = test system: TK-10 renal
U251 CNS = test system: U251 CNS
UACC-257 melanoma = test system: UACC-257 melanoma
UACC-62 melanoma = test system: UACC-62 melanoma
UO-31 renal = test system: UO-31 renal

## C[C@]12CC[C@@H]3c4ccc(O)cc4CC[C@H]3[C@@H]1CC[C@@H]2NS(=O)(=O)c1ccc(Cl)cc1
786-0 renal
  GI50: 5.19 µM
  TGI: 19.7 µM
A498 renal
  GI50: 2520 nM
  TGI: 9.36 µM
A549 NSCLC
  GI50: 3.98 µM
  TGI: 15.3 µM
ACHN renal
  GI50: 3.5 µM
  TGI: 12.9 µM
BT-549 breast
  GI50: 5.65 µM
  TGI: 22.3 µM
CAKI-1 renal
  GI50: 3.3 µM
  TGI: 10.4 µM
CCRF-CEM leukemia
  GI50: 3.5 µM
  TGI: 37.6 µM
COLO 205 colon
  GI50: 2170 nM
  TGI: 4.09 µM
DU-145 prostate
  GI50: 7.53 µM
  TGI: 21.6 µM
HCC-2998 colon
  GI50: 7.49 µM
  TGI: 23.8 µM
HCT-116 colon
  GI50: 4.03 µM
  TGI: 21.7 µM
HL-60(TB) leukemia
  GI50: 5.14 µM
  TGI: 26.6 µM
HOP-62 NSCLC
  GI50: 10.2 µM
  TGI: 24.4 µM
HOP-92 NSCLC
  GI50: 2680 nM
  TGI: 10.7 µM
HS 578T breast
  GI50: 2580 nM
  TGI: 14.5 µM
HT29 colon
  GI50: 2920 nM
  TGI: 8.19 µM
IGROV1 ovarian
  GI50: 5.74 µM
  TGI: 18.4 µM
K-562 leukemia
  GI50: 3.93 µM
  TGI: 31.7 µM
KM12 colon
  GI50: 2860 nM
  TGI: 9.51 µM
M14 melanoma
  GI50: 9.13 µM
  TGI: 27.1 µM
MALME-3M melanoma
  GI50: 3.25 µM
  TGI: 10.7 µM
MCF7 breast
  GI50: 1910 nM
  TGI: 4.86 µM
MDA-MB-231 breast
  GI50: 3.6 µM
  TGI: 14.2 µM
MDA-MB-435
  GI50: 1840 nM
  TGI: 3.93 µM
MOLT-4 leukemia
  GI50: 3.46 µM
  TGI: 24.4 µM
NCI-H226 lung
  GI50: 6.43 µM
  TGI: 21.4 µM
NCI-H23 lung
  GI50: 5.67 µM
  TGI: 23.1 µM
NCI-H460 lung
  GI50: 2600 nM
  TGI: 6.66 µM
NCI/ADR-RES ovarian
  GI50: 4 µM
  TGI: 16.8 µM
OVCAR-3 ovarian
  GI50: 3.75 µM
  TGI: 12.8 µM
OVCAR-4 ovarian
  GI50: 1990 nM
  TGI: 8.65 µM
OVCAR-5 ovarian
  GI50: 6.02 µM
  TGI: 20.5 µM
OVCAR-8 ovarian
  GI50: 4.86 µM
  TGI: 20.6 µM
PC-3 prostate
  GI50: 2860 nM
  TGI: 13.5 µM
RPMI-8226 leukemia
  GI50: 3.92 µM
  TGI: 23.5 µM
RXF 393 renal
  GI50: 3.02 µM
  TGI: 8.89 µM
SF-268 CNS
  GI50: 5.69 µM
  TGI: 19.9 µM
SF-295 CNS
  GI50: 1390 nM
  TGI: 2720 nM
SF-539 CNS
  GI50: 5.36 µM
  TGI: 19.1 µM
SK-MEL-2 melanoma
  GI50: 5.31 µM
  TGI: 17.7 µM
SK-MEL-28 melanoma
  GI50: 7.45 µM
  TGI: 22.3 µM
SK-MEL-5 melanoma
  GI50: 2400 nM
  TGI: 6.71 µM
SK-OV-3 ovarian
  GI50: 8.79 µM
  TGI: 22.5 µM
SN12C renal
  GI50: 3.02 µM
  TGI: 12.3 µM
SNB-19 CNS
  GI50: 11 µM
  TGI: 24 µM
SNB-75 CNS
  GI50: 2070 nM
  TGI: 9.17 µM
SR leukemia
  GI50: 4.47 µM
  TGI: 50.8 µM
SW-620 colon
  GI50: 3.95 µM
  TGI: 15.9 µM
T-47D breast
  GI50: 3.66 µM
  TGI: 15.3 µM
TK-10 renal
  GI50: 5.46 µM
  TGI: 17.6 µM
U251 CNS
  GI50: 5.49 µM
  TGI: 18.5 µM
UACC-257 melanoma
  GI50: 8.5 µM
  TGI: 23.5 µM
UACC-62 melanoma
  GI50: 4.46 µM
  TGI: 17.5 µM
UO-31 renal
  GI50: 2590 nM
  TGI: 11.9 µM
